Results taken from patent US20180074053A1 (priority 2016, published 2018).
Like-named read-outs stand apart in the source and are kept apart here.

Legend:
GPCR40 = GPCR40 (Homo sapiens, UniProt O14842); assay: cell-based
Method: (§1) The platform uses ChemiScreen GPCR stable cell lines that are used for real-time calcium flux assays to rapidly, screen a spectrum of GPCRs. […] Percentage activation values were determined upon initial addition of compound(s). Percentage activation and inhibition values were determined for each GPCR relative to the reference compounds.
(§2) Assays were performed according to the manufacturer's instructions. […] The assay plate was read by the FLIPR TETRA® (Molecular Devices, Sunnyvale, Calif.). All assay plate data were subjected to appropriate baseline corrections and the maximum fluorescence values were processed to calculate percentage activation (relative to ECmax reference agonist and vehicle control values).

MC2 = MC2 (Homo sapiens, UniProt Q01718); assay: cell-based
MC2, sequence (Q01718 whole entry): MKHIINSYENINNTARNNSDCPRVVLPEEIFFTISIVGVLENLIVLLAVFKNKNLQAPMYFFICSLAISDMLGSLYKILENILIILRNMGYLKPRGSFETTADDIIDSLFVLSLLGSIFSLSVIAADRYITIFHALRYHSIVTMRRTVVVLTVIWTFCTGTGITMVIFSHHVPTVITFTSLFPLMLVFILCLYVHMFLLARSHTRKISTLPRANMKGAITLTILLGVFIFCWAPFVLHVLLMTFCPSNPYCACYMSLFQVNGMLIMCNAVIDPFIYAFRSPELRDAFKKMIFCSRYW
MC2, sequence (Q8TCY5 whole entry partner): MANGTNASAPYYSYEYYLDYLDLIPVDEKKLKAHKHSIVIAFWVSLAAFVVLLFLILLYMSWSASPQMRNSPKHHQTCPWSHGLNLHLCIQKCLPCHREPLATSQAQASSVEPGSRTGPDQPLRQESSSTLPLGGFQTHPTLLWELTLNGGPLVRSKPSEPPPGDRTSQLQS
Method: as §1, §2

MC5 = MC5 (Homo sapiens, UniProt P33032); assay: cell-based
MC5, sequence (P33032 whole entry): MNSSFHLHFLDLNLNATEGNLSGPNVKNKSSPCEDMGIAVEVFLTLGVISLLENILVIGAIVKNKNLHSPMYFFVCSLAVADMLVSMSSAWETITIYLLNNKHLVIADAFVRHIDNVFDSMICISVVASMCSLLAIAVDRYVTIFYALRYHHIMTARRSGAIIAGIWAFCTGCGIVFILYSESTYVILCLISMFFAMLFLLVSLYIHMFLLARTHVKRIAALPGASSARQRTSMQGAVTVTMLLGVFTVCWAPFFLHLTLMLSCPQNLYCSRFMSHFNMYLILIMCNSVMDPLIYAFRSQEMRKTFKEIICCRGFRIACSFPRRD
Method: as §1, §2

MCHR1 = MCHR1 (Homo sapiens, UniProt Q99705); assay: cell-based
MCHR1, sequence (Q99705 whole entry): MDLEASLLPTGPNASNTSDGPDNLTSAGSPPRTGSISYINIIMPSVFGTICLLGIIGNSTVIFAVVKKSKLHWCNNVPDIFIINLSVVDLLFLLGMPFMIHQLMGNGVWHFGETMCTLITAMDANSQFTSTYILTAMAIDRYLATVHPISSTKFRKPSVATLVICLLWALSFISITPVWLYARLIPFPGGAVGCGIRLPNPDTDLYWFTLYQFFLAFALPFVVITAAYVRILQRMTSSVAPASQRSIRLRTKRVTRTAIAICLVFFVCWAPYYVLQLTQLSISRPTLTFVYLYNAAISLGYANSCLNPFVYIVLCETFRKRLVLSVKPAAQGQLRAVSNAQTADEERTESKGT
Method: as §1, §2

MCHR2 = MCHR2 (Homo sapiens, UniProt Q969V1); assay: cell-based
MCHR2, sequence (Q969V1 whole entry): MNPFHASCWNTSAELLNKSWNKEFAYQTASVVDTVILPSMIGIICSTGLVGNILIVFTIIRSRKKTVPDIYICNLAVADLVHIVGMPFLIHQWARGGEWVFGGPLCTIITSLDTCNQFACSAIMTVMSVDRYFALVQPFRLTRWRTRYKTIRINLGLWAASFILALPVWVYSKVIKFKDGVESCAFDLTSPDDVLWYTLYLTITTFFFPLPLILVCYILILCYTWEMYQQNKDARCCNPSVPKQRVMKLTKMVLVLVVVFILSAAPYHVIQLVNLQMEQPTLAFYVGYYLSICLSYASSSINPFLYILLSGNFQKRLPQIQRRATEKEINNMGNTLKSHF
Method: as §1, §2

MRGD [1] = target: T1, MRGD (Homo sapiens, UniProt Q8TDS7); assay: cell-based
T1 sequence (Q8TDS7 whole entry): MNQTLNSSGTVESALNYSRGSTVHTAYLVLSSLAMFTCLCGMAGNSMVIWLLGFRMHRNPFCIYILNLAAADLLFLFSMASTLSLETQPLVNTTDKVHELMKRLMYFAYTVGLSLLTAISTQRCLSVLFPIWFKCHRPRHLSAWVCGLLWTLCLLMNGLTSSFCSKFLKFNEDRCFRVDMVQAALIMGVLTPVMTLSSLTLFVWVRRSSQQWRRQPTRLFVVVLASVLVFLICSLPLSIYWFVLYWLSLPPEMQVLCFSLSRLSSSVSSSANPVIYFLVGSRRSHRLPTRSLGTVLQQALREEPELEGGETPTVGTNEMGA
Method: as §1, §2

MRGX2 = MRGX2 (Homo sapiens, UniProt Q96LB1); assay: cell-based
MRGX2, sequence (Q96LB1 whole entry): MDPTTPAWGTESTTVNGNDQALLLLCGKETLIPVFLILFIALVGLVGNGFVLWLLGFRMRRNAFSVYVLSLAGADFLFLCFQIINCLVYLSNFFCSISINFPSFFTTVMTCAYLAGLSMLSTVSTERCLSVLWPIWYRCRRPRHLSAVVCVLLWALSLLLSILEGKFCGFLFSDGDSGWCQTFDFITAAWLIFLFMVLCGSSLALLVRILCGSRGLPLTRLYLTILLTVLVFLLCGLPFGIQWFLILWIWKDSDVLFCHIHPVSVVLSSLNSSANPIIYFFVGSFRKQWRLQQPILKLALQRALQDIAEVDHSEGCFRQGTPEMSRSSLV
Method: as §1, §2

Motilin = Motilin (Homo sapiens, UniProt O43193); assay: cell-based
Motilin, sequence (O43193 whole entry): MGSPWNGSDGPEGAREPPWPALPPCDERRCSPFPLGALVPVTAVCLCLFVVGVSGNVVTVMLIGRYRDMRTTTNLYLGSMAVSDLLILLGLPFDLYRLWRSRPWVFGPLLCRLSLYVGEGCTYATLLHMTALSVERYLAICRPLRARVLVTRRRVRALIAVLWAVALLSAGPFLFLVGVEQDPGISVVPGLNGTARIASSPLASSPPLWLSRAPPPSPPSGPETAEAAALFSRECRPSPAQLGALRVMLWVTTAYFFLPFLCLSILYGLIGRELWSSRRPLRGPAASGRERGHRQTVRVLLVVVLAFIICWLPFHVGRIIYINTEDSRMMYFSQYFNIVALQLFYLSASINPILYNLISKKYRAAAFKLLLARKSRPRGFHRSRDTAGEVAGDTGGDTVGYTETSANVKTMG
Method: as §1, §2

NK2 = NK2 (Homo sapiens, UniProt P21452); assay: cell-based
NK2, sequence (P21452 whole entry): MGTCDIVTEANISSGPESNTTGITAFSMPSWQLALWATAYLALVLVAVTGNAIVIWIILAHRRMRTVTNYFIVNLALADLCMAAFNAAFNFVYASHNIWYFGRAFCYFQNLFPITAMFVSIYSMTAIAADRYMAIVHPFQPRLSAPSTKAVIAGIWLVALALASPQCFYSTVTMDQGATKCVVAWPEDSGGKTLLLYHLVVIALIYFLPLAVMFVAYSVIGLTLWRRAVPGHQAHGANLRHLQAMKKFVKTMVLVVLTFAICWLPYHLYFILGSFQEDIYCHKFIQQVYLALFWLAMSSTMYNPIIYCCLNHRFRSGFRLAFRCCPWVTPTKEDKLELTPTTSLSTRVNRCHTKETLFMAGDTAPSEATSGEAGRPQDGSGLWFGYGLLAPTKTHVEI
Method: as §1, §2

NOP = NOP (Homo sapiens, UniProt P41146); assay: cell-based
NOP, sequence (P41146 whole entry): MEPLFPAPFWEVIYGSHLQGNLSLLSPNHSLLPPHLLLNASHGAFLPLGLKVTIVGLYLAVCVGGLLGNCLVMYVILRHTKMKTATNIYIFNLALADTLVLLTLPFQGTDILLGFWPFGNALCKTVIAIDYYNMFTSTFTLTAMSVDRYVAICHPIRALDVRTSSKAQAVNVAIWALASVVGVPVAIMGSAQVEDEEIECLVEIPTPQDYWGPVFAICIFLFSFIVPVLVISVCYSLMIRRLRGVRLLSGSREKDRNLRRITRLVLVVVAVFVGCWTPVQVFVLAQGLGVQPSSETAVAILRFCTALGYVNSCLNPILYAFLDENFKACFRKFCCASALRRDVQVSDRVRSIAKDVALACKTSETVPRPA
Method: as §1, §2

NPBW1 = NPBW1 (Homo sapiens, UniProt P48145); assay: cell-based
NPBW1, sequence (P48145 whole entry): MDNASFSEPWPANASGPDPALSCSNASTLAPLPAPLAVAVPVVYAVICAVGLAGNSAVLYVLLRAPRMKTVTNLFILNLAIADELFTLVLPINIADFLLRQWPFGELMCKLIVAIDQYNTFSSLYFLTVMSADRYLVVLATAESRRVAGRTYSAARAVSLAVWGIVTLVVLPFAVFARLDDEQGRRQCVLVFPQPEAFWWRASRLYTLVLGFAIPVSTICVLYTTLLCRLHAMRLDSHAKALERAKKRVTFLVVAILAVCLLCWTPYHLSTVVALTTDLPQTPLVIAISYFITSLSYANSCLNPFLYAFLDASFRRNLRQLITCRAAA
Method: as §1, §2

HEK293T cells = details: 0.0037-0.1 mM; FIG. 4
Method: Real-time Ca2+ flux assays. To further validate the GPCRProfiler results, we established a real-time Ca2+ flux assay using a FlexStation 3 Microplate Reader (Molecular Devices). […] The Fluo-4 Direct™ Calcium Assay Kits (Life Technologies), which allows direct addition to wells containing cells growing in culture media without the requirement of media removal or a wash step, is used to monitor Ca2+ flux in cells according to the manufacturer's protocol. Briefly, HEK293T cells are plated and cultured in 96-well microplates to near confluence. The microplates containing cells are removed from the incubator and an equal volume of 2× Fluo-4 Direct™ calcium reagent loading solution is added directly to wells containing cells in culture medium. The plates are incubated for 30 minutes at 37° C. and 30 minutes at room temperature. Then the plates (no need to remove the medium or Fluo-4 Direct™ calcium reagent) are placed on FlexStation 3 with settings appropriate for excitation at 494 nm and emission at 516 nm. FlexStation 3 can directly transfer reagents from 96-well source plates to a read plate one column at a time. […] Shaded shapes are negative controls.

MRGD [2] = target: T1, MRGD; assay: Calcium mobilization in MRGD over-expressing cells; assay type: cell-based; design: host or cells: ChemiScreen over-expressing cell line, given as 'HEK 293T cells (Chem-1, EMD Millipore)'; details: at 5 mM, highest dose used; Example 4
Method: Cells were grown in DMEM medium containing 10% FBS, 1× non-essential amino acids (Gibco #111450-040), 20 mM HEPES and 250 μg/mL Geneticin® (Gibco #10131-035). Cells were harvested with 0.25% Trypsin/EDTA (Gibco #25200-056), pelleted at 1,200×g for 6 minutes and resuspended in DMEM media described above minus Geneticin®. The cells were seeded at 4×10^4 cells/well/100 μL of a clear bottom/black 96-well plate and grown overnight. The calcium mobilization assays was performed using Screen Quest Fluo-8 Medium Removal Calcium Assay Kit (AAT Bioquest #36308) according to the manufacturer's protocol. Briefly, cells were washed with 100 μL volume of Hank's balanced salt solution, 20 mM HEPES, pH 7.4 and loaded with a buffer containing HBSS, 20 mM HEPES, 1× Pluronic F127 and the Fluo-8 NW dye. The cells were incubated for 30 minutes at 37° C. followed by a 30 minute room temperature incubation. Drug stocks were prepared at 100× concentration and diluted 1:33 in HBSS, 20 mM HEPES, pH 7.4 in a 96-well plate (Corning #3641). Calcium mobilization was measured using the FlexStation 3 (Molecular Devices) at excitation wavelength of 490 nm and emission wavelength of 525 nm. Fluorescence was measured for 180 seconds at 5 second intervals with the addition of compound at a 1:3 dilution after 15 seconds. Peak fluorescence values were calculated using SoftMax Pro 5 (Molecular Devices). The fluorescence values obtained from control wells without cells are subtracted from wells containing treated cells to correct for background. The ratio of fluorescence values of treated cells to vehicle control wells was used to calculate fold activity of the compounds.
MRGD cells (EMD Millipore, MA) were treated with either β-alanine, or alamandine at various concentrations (FIG. 10) and calcium mobilization was monitored using a FlexStation 3 Microplate Reader (Molecular Devices) as described in Example 4.

[3] = read-out: percent activation compared to standards, DT-110 @ 1.25 mM, Avg.
[4] = read-out: percent activation compared to standards, DT-110 @ 1.25 mM, n1
[5] = read-out: percent activation compared to standards, DT-110 @ 1.25 mM, n2
[6] = read-out: percent activation compared to standards, DT-110 @ 12.5 mM, Avg.
[7] = read-out: percent activation compared to standards, DT-110 @ 12.5 mM, n1
[8] = read-out: percent activation compared to standards, DT-110 @ 12.5 mM, n2

GPCR40, sequence (O14842 whole entry): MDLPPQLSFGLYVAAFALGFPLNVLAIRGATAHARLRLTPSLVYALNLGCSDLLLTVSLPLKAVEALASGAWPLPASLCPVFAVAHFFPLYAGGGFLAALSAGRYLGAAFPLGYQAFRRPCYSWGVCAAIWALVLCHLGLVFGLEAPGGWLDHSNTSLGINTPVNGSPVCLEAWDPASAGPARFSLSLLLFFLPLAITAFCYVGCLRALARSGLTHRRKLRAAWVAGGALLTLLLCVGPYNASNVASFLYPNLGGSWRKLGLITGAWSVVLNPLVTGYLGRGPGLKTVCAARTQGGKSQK

With CC(C)C[C@@H](NC(=O)CNC(=O)CN)C(=O)O the activation at 1250 µM (GPCR40; [3]) was -9.5%, the activation at 1250 µM (GPCR40; [4]) was -9.3% and the activation at 1250 µM (GPCR40; [5]) was -9.6%. It also gave an activation at 12500 µM (GPCR40; [6]) of 50.2%, an activation at 12500 µM (GPCR40; [7]) of 55.9% and an activation at 12500 µM (GPCR40; [8]) of 44.5%. The activation at 1250 µM (MC2; [3]) was -0.7%, the activation at 1250 µM (MC2; [4]) was 0.6% and the activation at 1250 µM (MC2; [5]) was -2%. For the same compound, the activation at 12500 µM (MC2; [6]) was -1%, the activation at 12500 µM (MC2; [7]) was -1% and the activation at 12500 µM (MC2; [8]) was -0.9%. The activation at 1250 µM (MC5; [3]) was 0%, the activation at 1250 µM (MC5; [4]) was 0.7% and the activation at 1250 µM (MC5; [5]) was -0.8%. For the same compound, the activation at 12500 µM (MC5; [6]) was -0.3%, the activation at 12500 µM (MC5; [7]) was -0.6% and the activation at 12500 µM (MC5; [8]) was 0%. It also gave an activation at 1250 µM (MCHR1; [3]) of 0.4%, an activation at 1250 µM (MCHR1; [4]) of 0.2% and an activation at 1250 µM (MCHR1; [5]) of 0.7%. The activation at 12500 µM (MCHR1; [6]) was -0.1%, the activation at 12500 µM (MCHR1; [7]) was -0.5% and the activation at 12500 µM (MCHR1; [8]) was 0.3%. The activation at 1250 µM (MCHR2; [3]) was 0.5%, the activation at 1250 µM (MCHR2; [4]) was 0.1% and the activation at 1250 µM (MCHR2; [5]) was 0.8%. The activation at 12500 µM (MCHR2; [6]) was -0.9%, the activation at 12500 µM (MCHR2; [7]) was -0.8% and the activation at 12500 µM (MCHR2; [8]) was -0.9%. The activation at 1250 µM (MRGD [1]; [3]) was 69.2%, the activation at 1250 µM (MRGD [1]; [4]) was 76.5% and the activation at 1250 µM (MRGD [1]; [5]) was 62%. For the same compound, the activation at 12500 µM (MRGD [1]; [6]) was 64.5%, the activation at 12500 µM (MRGD [1]; [7]) was 60.7% and the activation at 12500 µM (MRGD [1]; [8]) was 68.3%. For the same compound, the activation at 1250 µM (MRGX2; [3]) was -0.2%, the activation at 1250 µM (MRGX2; [4]) was 0% and the activation at 1250 µM (MRGX2; [5]) was -0.4%. It also gave an activation at 12500 µM (MRGX2; [6]) of 0%, an activation at 12500 µM (MRGX2; [7]) of 0.4% and an activation at 12500 µM (MRGX2; [8]) of -0.4%. The activation at 1250 µM (Motilin; [3]) was -0.3%, the activation at 1250 µM (Motilin; [4]) was -0.3% and the activation at 1250 µM (Motilin; [5]) was -0.3%. For the same compound, the activation at 12500 µM (Motilin; [6]) was -0.4%, the activation at 12500 µM (Motilin; [7]) was -0.3% and the activation at 12500 µM (Motilin; [8]) was -0.5%. It also gave an activation at 1250 µM (NK2; [3]) of -9.5%, an activation at 1250 µM (NK2; [4]) of -9.4% and an activation at 1250 µM (NK2; [5]) of -9.6%. It also gave an activation at 12500 µM (NK2; [6]) of -9.6%, an activation at 12500 µM (NK2; [7]) of -9.5% and an activation at 12500 µM (NK2; [8]) of -9.7%. It also gave an activation at 1250 µM (NOP; [3]) of -0.1%, an activation at 1250 µM (NOP; [4]) of -7.8% and an activation at 1250 µM (NOP; [5]) of 7.6%. The activation at 12500 µM (NOP; [6]) was -2.3%, the activation at 12500 µM (NOP; [7]) was 3.4% and the activation at 12500 µM (NOP; [8]) was -8%. It also gave an activation at 1250 µM (NPBW1; [3]) of 0.2%, an activation at 1250 µM (NPBW1; [4]) of 1.6% and an activation at 1250 µM (NPBW1; [5]) of -1.1%. For the same compound, the activation at 12500 µM (NPBW1; [6]) was -0.9%, the activation at 12500 µM (NPBW1; [7]) was -0.8% and the activation at 12500 µM (NPBW1; [8]) was -0.9%. For the same compound, the “real-time Ca2+ flux” value (HEK293T cells) was “stimulate greater Ca^2+ flux” and the calcium mobilization activity (MRGD [2]) was “active”.
